{
  "source": "patent US20240301409A1",
  "about": "“Chemically Modified Small Activating RNA” (RACTIGEN THERAPEUTICS, priority 2021, published 2024)",
  "key": {"INF-α": {"system": "INF-α", "experiment": "PBMC cytokine release assay, INF-α (ELISA)", "details": "10 nM, 24 hours; for immunostimulatory activity (INF-α) compared with Rag1-40, in words: PBMC", "procedure": "Cells were treated with the indicated duplexes at a final concentration of 10 nM or lipopolysaccharide (LPS) as a positive control for 24 hours, respectively. The levels of INF-α and TNF-α in the cell supernatant were detected by ELISA kit. […] Data represent mean±SD of two independent experiments.\nHuman peripheral blood mononuclear cells (Allcells, Alameda, CA) were seeded in a 96-well microplate at a density of approximately 10×10^4 cells/well. Transfection of dsRNA was performed using RNAiMAX (Invitrogen, Carlsbad, CA) following manufacturer's instructions. Supernatants were collected 24 hours after transfection and immediately assayed for IFN-α and TNF-α production using ELISA kit (R&D Systems). Each treatment group was analyzed in triplicate.\nTo assess the immunostimulatory effect of chemically modified saRNAs, human peripheral blood mononuclear cells (PBMC) from healthy donors were incubated with the double-stranded saRNAs, and INF-α and TNF-α levels in the supernatant of treated cells after 24 hours were measured."}, "[1]": {"system": "Rag1-40 target sequence in the 3′ UTR of firefly luciferase, COS-1 cells", "experiment": "Analysis of off-target effects (pOff-Target dual luciferase reporter in COS-1 cells)", "details": "lysed 48 hours after transfection, luciferase activity", "procedure": "A 26 bp fragment comprising the target site of Rag1-40 was cloned in the antisense orientation into the 3′ UTR region of the firefly luciferase gene in a pmirGLO dual luciferase vector. Vector plasmids were co-transfected with the indicated saRNAs into COS-1 cells. Cells were lysed 48 hours after transfection, and the resulting lysates were assessed for luciferase activity. Data represent mean±SD of at least two independent experiments. Dashed line represents comparisons to blank control (top dashed line) and Rag1-40 (bottom dashed line). Values close to the top dashed line indicate no off-target effect.\nA 26 bp fragment comprising the Rag1-40 target sequence was cloned in the antisense orientation into a multiple cloning site (MCS) of the 3′ untranslated region of firefly luciferase of the pmirGLO dual luciferase vector (Promega, Fitchburg, WI), to obtain pOff-Target plasmid. Following E. coli transformation and overnight incubation, plasmids for each construct were prepared by standard method. Each plasmid was transfected into COS-1 monkey kidney epithelial cells using Lipofectamine 3000 (Invitrogen, Carlsbad, CA). Subsequently, saRNA was transfected using RNAiMAX. After 24 hours of incubation, COS-1 cells were lysed with 1× lysis buffer, and luciferase activity was measured using dual luciferase reporter gene assay system (Promega, WI, USA) following manufacturer's instructions.\nTo assess the off-target effects of unmodified and modified saRNAs, a sequence complementary to the sense oligonucleotide strand of Rag1-40 was cloned into the 3′UTR region of the luciferase gene in a pmirGLO dual luciferase vector. The vector plasmid was co-transfected with the saRNA into COS-1 cells. Cells were lysed 48 hours after transfection and the resulting lysates were assessed for luciferase activity."}, "Ku-7-LG cells": {"system": "Ku-7-LG cells", "experiment": "Cellular proliferation assay (CCK8) in Ku-7-LG cells", "format": "cell-based, human", "details": "10 nM, 72 hours", "protocol": "Ku-7-LG cells were transfected with the indicated saRNA at 10 nM for 3 days. […] The closer the luciferase value is to the control group, the lower the probability of off-target effects of saRNA is. Control and dsCon2 were blank transfection and double-stranded scramble RNA transfection, respectively. The value of the ordinate represents the mean±SD of two repeated treatments.\n(§1) After the transfection, the number of viable cells was detected with a CCK8 kit, and plotted as the percentage of the blank control treatment group. […] A transfection sample without oligonucleotide served as a blank control. Non-specific duplex (dsCon) transfected sample served as a negative control. Data are presented as mean±SD of at least two independent experiments. The values below the dashed line indicate stronger growth inhibitory activity compared to duplex Rag1-40 without chemical modification.\n(§2) Human bladder cancer cells Ku-7-LG (ATCC), J82 (ATCC) and T24 (ATCC) were cultured in McCoy medium (Gibco) comprising 10% calf serum (Sigma-Aldrich) and 1% penicillin/Streptomycin (Gibco). Cells were cultured at 37° C. under 5% CO2. Ku-7-LG, J82 and T24 cells were plated into 12-well plates at 10×10^4 cells per well, transfected with the small RNA at a concentration of 10 nM (unless otherwise specified) for three days, using RNAiMax (Invitrogen, Carlsbad, CA) according to the manufacturer's instructions. Two replicate wells were set for each treatment.\n(§3) Cells were plated in a 96-well plate at 2˜4×10^3 cells/well, cultured overnight, and transfected with the oligonucleotide duplexes. Three days after transfection, CCK8 (Dojindo) was used to detect cellular proliferation following manufacturer's instructions. The experimental steps are briefly described as follows: 10 μL of CCK8 solution was added to each well, incubated at 37° C. for 1 hour, and then the absorbance at 450 nm was measured using a microplate reader.\n(§4) It is known that p21 induction by saRNA is that a variety of tumor suppressor factors such as p21 protein suppress the proliferation of cancer cells. To evaluate the effect of chemically modified saRNAs on the function of cancer cells, cells (Ku-7-LG and T24) were transfected with 10 nM unmodified and modified saRNAs for 72 hours, and the cellular proliferation was determined by CCK8. […] Furthermore, there was a correlation between RNA activating activity (FIGS. 7A-7B) and suppression of cellular proliferation activity (FIGS. 8A-8B). Strong p21 activators are usually also strong cytostatics."}, "T24 cells": {"system": "T24 cells", "experiment": "Cellular proliferation assay (CCK8) in T24 cells, alone and combined with Mitomycin C or valrubicin", "format": "cell-based, human", "details": "T24 cells, 10 nM, 72 hours, CCK8", "excerpt": "as §1\nT24 cells were transfected with RAG1-40-31 at concentrations of 0.1, 0.5, 1, 5, 10, 25 and 50 nM for 24 hours, and then Mitomycin C was added at concentrations of 1, 10, 100, 1000 and 10000 nM. The combined treatment was carried out with concentrations in pairs. After treatment, the cellular proliferation was detected by CCK8 kit. FIGS. 16A-16B show the relative proliferation proportion of T24 cells after the combined treatment with chemically modified saRNA RAG1-40-31 and valrubicin. […] Control and DMSO are the blank transfection control and the solvent for dilution control, respectively.\nT24 cells were transfected with RAG1-40-31 at concentrations of 0.1, 0.5, 1, 5, 10, 25 and 50 nM for 24 hours, and then valrubicin at concentrations of 1, 10, 100, 1000 and 10000 nM was added. The combined treatment was carried out with concentrations in pairs. After treatment, the cellular proliferation was detected by CCK8 kit.\nas §2, §3, §4"}, "RNase A": {"target": "T1, RNase A (Bos taurus, UniProt P61823)", "T1 sequence (P61823 27-150)": "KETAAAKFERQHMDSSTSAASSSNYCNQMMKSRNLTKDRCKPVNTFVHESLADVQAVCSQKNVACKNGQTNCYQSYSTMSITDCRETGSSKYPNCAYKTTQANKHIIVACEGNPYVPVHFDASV", "experiment": "saRNA stability analysis in the presence of RNase A (agarose gel)", "details": "incubation 0 to 96 hours"}},
  "note": "Oligonucleotides are written 5' to 3', each unit as a sugar letter and its base; * is a phosphorothioate linkage, no mark a phosphodiester; rarer units and linkages stand in square brackets, end groups in braces. Plain capitals give the bases only. m = 2'-O-methyl; r = 2'-OH (RNA); f = 2'-fluoro",
  "data": [
    {"substance": "RAG1-IS-1: RNA duplex known to have strong immunostimulatory activity, positive control: S GUCAUCACACUGAAUACCAAU (SEQ ID NO 20), AS AUUGGUAUUCAGUGUGAUGACAC (SEQ ID NO 21) (listed as RNA, chemistry not given here) [reference compound]", "values": [
      {"measurement": "protein level of INF-α", "setting": "INF-α; PBMC supernatant", "result": 708, "unit": "pg/mL"}
    ]},
    {"substance": "Rag1-40-5: saRNA duplex: sense mCmCAACUCAUUCUCCAAGmUmC (SEQ ID NO 5); antisense UACUfUGGAGAAfUGAGUfUGG*fC*A (SEQ ID NO 10) (sense CCAACUCAUUCUCCAAGUC; antisense UACUUGGAGAAUGAGUUGGCA; 2'-OMe, 2'-F, phosphorothioates; modified_base (1)..(19) (1,2,18,19)=2′-O-methyl(2′-OMe); modified_base (5)..(20) (5,12,17,20)=2′-fluoro; modified_base (19)..(21) (19,20,21)=phosphorothioate (PS) backbone modification)", "values": [
      {"measurement": "immunostimulatory activity (INF-α) compared with Rag1-40, in words", "setting": "INF-α", "result": "reduced immunostimulatory activity"},
      {"measurement": "off-target effect compared to unmodified Rag1-40, in words", "setting": "[1]", "result": "completely inhibited"}
    ]},
    {"substance": "Rag1-40-8: saRNA duplex: sense mCmCAACUCAUUCUCCAAGmUmC (SEQ ID NO 5); antisense fUactfUGGAGAAfUGAGfUfUGG*fC*A (SEQ ID NO 13) (sense CCAACUCAUUCUCCAAGUC; antisense UACTUGGAGAAUGAGUUGGCA; 2'-OMe, 2'-F, phosphorothioates, DNA residues; modified_base (1)..(19) (1,2,18,19)=2′-O-methyl(2′-OMe); modified_base (1)..(17) (1,2,9,13,14,17)=2′-fluoro; (1)..(21) (1,5,6,7,8,9,10,11,12,13,14,15,1,61,7,18,19,20, 21)=RNA; (2)..(4) (2,3,4)=DNA; modified_base (16)..(18) (16,17,18)=phosphorothioate (PS) backbone modification)", "values": [
      {"measurement": "suppression of cellular proliferation, in words", "setting": "Ku-7-LG cells", "result": "weakens the activity of the saRNA duplex to suppress cellular proliferation"},
      {"measurement": "suppression of cellular proliferation, in words", "setting": "T24 cells", "result": "weakens the activity of the saRNA duplex to suppress cellular proliferation"},
      {"measurement": "immunostimulatory activity (INF-α) compared with Rag1-40, in words", "setting": "INF-α", "result": "reduced immunostimulatory activity"},
      {"measurement": "degradation of duplex at 96 hours", "setting": "RNase A", "result": "little or no signs of degradation"},
      {"measurement": "off-target effect compared to unmodified Rag1-40, in words", "setting": "[1]", "result": "mitigated or similar off-target effects"}
    ]},
    {"substance": "Rag1-40-9: saRNA duplex: sense fCfCAACUCAUUCUCCAAGfUfC (SEQ ID NO 14); antisense fUAfCfUfUGGAGAAfUGAGfUfUGGfCA (SEQ ID NO 6) (sense CCAACUCAUUCUCCAAGUC; antisense UACUUGGAGAAUGAGUUGGCA; 2'-F modifications; modified_base (1)..(19) (1,2,18,19)=2′-fluoro; modified_base (1)..(20) (1,3,4,5,12,16,17,20)=2′-fluoro)", "values": [
      {"measurement": "immunostimulatory activity (INF-α) compared with Rag1-40, in words", "setting": "INF-α", "result": "reduced immunostimulatory activity"},
      {"measurement": "degradation of duplex at 96 hours", "setting": "RNase A", "result": "little or no signs of degradation"},
      {"measurement": "off-target effect compared to unmodified Rag1-40, in words", "setting": "[1]", "result": "mitigated or similar off-target effects"}
    ]},
    {"substance": "Rag1-40-13: saRNA duplex: sense fCfCAACUCAUUCUCCAAGfUfC (SEQ ID NO 14); antisense UACUfUGGAGAAfUGAGUfUGG*fC*A (SEQ ID NO 10) (sense CCAACUCAUUCUCCAAGUC; antisense UACUUGGAGAAUGAGUUGGCA; 2'-F modifications, phosphorothioates; modified_base (1)..(19) (1,2,18,19)=2′-fluoro; modified_base (5)..(20) (5,12,17,20)=2′-fluoro; modified_base (19)..(21) (19,20,21)=phosphorothioate (PS) backbone modification)", "values": [
      {"measurement": "immunostimulatory activity (INF-α) compared with Rag1-40, in words", "setting": "INF-α", "result": "reduced immunostimulatory activity"},
      {"measurement": "off-target effect compared to unmodified Rag1-40, in words", "setting": "[1]", "result": "mitigated or similar off-target effects"}
    ]},
    {"substance": "Rag1-40-15: saRNA duplex: sense fCfCAACUCAUUCUCCAAGfUfC (SEQ ID NO 14); antisense U*A*fCfUfUGGAGAAfUGAGfUfUGG*fC*A (SEQ ID NO 12) (sense CCAACUCAUUCUCCAAGUC; antisense UACUUGGAGAAUGAGUUGGCA; 2'-F modifications, phosphorothioates; modified_base (1)..(19) (1,2,18,19)=2′-fluoro; modified_base (2)..(21) (2,3,19,20,21)=phosphorothioate (PS) backbone modification; modified_base (3)..(20) (3,4,5,12,16,17,20)=2′-fluoro)", "values": [
      {"measurement": "immunostimulatory activity (INF-α) compared with Rag1-40, in words", "setting": "INF-α", "result": "reduced immunostimulatory activity"},
      {"measurement": "degradation of duplex at 96 hours", "setting": "RNase A", "result": "little or no signs of degradation"},
      {"measurement": "off-target effect compared to unmodified Rag1-40, in words", "setting": "[1]", "result": "mitigated or similar off-target effects"}
    ]},
    {"substance": "Rag1-40-24: saRNA duplex: sense mCmCAACUCAUUCUCCAAG*U*C (SEQ ID NO 15); antisense fUactfUGGAGAAfUGAGfUfUGG*fC*A (SEQ ID NO 13) (sense CCAACUCAUUCUCCAAGUC; antisense UACTUGGAGAAUGAGUUGGCA; 2'-OMe, 2'-F, phosphorothioates, DNA residues; modified_base (1)..(2) (1,2)=2′-O-methyl(2′-OMe); modified_base (17)..(19) (17,18,19)=phosphorothioate (PS) backbone modification; modified_base (1)..(17) (1,2,9,13,14,17)=2′-fluoro; (1)..(21) (1,5,6,7,8,9,10,11,12,13,14,15,1,61,7,18,19,20, 21)=RNA; (2)..(4) (2,3,4)=DNA; modified_base (16)..(18) (16,17,18)=phosphorothioate (PS) backbone modification)", "values": [
      {"measurement": "suppression of cellular proliferation, in words", "setting": "Ku-7-LG cells", "result": "weakens the activity of the saRNA duplex to suppress cellular proliferation"},
      {"measurement": "suppression of cellular proliferation, in words", "setting": "T24 cells", "result": "weakens the activity of the saRNA duplex to suppress cellular proliferation"},
      {"measurement": "degradation of duplex at 96 hours", "setting": "RNase A", "result": "little or no signs of degradation"},
      {"measurement": "off-target effect compared to unmodified Rag1-40, in words", "setting": "[1]", "result": "completely inhibited"}
    ]},
    {"substance": "Rag1-40-27: saRNA duplex: sense fCfCAACUCAUUCUCCAAG*U*C (SEQ ID NO 16); antisense fUmAfCfUfUmGmGmAmGmAmAfUmGmAmGfUfUmGmGfCmA (SEQ ID NO 8) (sense fCfCrArArCrUrCrArUrUrCrUrCrCrArArG*rU*rC)", "values": [
      {"measurement": "suppression of cellular proliferation, in words", "setting": "Ku-7-LG cells", "result": "negatively affects proliferation suppression activity"},
      {"measurement": "suppression of cellular proliferation, in words", "setting": "T24 cells", "result": "negatively affects proliferation suppression activity"},
      {"measurement": "immunostimulatory activity (INF-α) compared with Rag1-40, in words", "setting": "INF-α", "result": "reduced immunostimulatory activity"},
      {"measurement": "degradation of duplex at 96 hours", "setting": "RNase A", "result": "little or no signs of degradation"},
      {"measurement": "off-target effect compared to unmodified Rag1-40, in words", "setting": "[1]", "result": "completely inhibited"}
    ]}
  ]
}
